Columns and labels:
[1] = system: Adjuvant Induced Arthritis in Rats; assay: Adjuvant-induced arthritis in the rat; type: in vivo, rat (Royal Hart, Wistar strain)
Experimental: (B) Adjuvant-induced arthritis in the rat […] Groups of three Royal Hart, Wistar strain rats weighing 200±10 g. each were injected intradermally in the right hind paw with Freund's adjuvant (dried human tubercle bacilli in a mineral oil vehicle) at a dose of 2 mg./kg. of body weight. The test compounds were administered orally in a 1.5% starch vehicle at various doses once daily on days 0 to 13 post challenge. Control rats were treated in a similar manner, but given only starch vehicle. On the 14th and 21st day post challenge the diameter of the injected paw was measured by micrometer caliper. The volume of inflamed paws were estimated from these measurements and the effects of each compound are expressed as percent inhibition of swelling as compared to controls. Table II records the results of these tests conducted with representative compounds of this invention and known anti-inflammatory agents. The active compounds of this invention suppress the progression of the arthritis and associated joint deterioration.

[2] = system: Carrageenin-Induced Edema; assay: Carrageenin-induced edema in the rat; type: in vivo, rat (Royal Hart, Wistar strain); conditions: oral gavage, 5 hours after drug, 4 hours after carrageenin, dose not given, * p = <.05 by t test
Experimental: (A) Carrageenin-induced edema in the rat
In determining the acute anti-inflammatory activity of the cis-2-[2(or 3)-thenoyl]-3-hydroxy-2-alkenenitriles of the present invention, Royal Hart, Wistar strain rats, ranging in weight from 80 to 90 grams were used. The rats were fasted overnight prior to dosing but had free access to water. The test compounds were administered in aqueous suspension, by gavage, in a volume of 1.7 ml. per 50 grams of rat [corresponds to hydration volume used by Winter, et al., Proc. Soc. […] The phlogistic agent used was carrageenin prepared as a sterile 1% suspension in 0.9% aqueous sodium chloride for routine testing. A volume of 0.05 ml. was injected through a 26 gauge needle into the plantar tissue of the right hind paw. Measurements were made 5 hours after drug administration (4 hours after carrageenin challenge). Volumes of both the normal and carrageenin inflammed feet were determined. The difference between the two measurements is considered to be the increased edema due to the carrageenin administration. Results are expressed as a C/T efficacy ratio (edema of control animals/edema of treated animals).

[3] = oral 50 mg./kg. daily days 0 to 13, * (where printed) p = <.05 by t test
[4] = oral 50 mg./kg. daily days 0 to 13, no asterisk
[5] = oral 25 mg./kg. daily days 0 to 13, * p = <.05 by t test

Row | SMILES | % Inhibition of Swelling, Day 14 [1, 3] [%] | % Inhibition of Swelling, Day 21 [1, 4] [%] | C/T Ratio (edema of control animals/edema of treated animals) [2] | % Inhibition of Swelling, Day 14 [1, 5] [%] | % Inhibition of Swelling, Day 21 [1, 5] [%]
1 | C/C(O)=C(\C#N)C(=O)c1ccsc1 [Cis-2-(3-thenoyl)-3-hydroxycrotononitrile] | 38 | 19 | 2.42 |  | 
2 | C/C(O)=C(\C#N)C(=O)c1ccc(Cl)s1 [Cis-2-(5-chloro-2-thenoyl)-3-hydroxycrotononitrile] |  |  |  | 49 | 31
3 | C/C(O)=C(\C#N)C(=O)c1cccs1 [Cis-2-(2-thenoyl)-3-hydroxycrotononitrile] | 42 | 6 | 2.04 |  | 

— patent publication US4197310A, “Thiophenepropionitriles” (American Cyanamid Company, priority 1979, dated 1980)
